In data set [1] the test system is P. berghei liver stage in HepG2-A16-CD81EGFP. On the set-up: method as in ref [58, 65] (a number printed in a supplementary file, which may have a reference list of its own: not looked up in the article's list). The following applies: ref [58, 65], cited from earlier work; for P. berghei Liver stage activity summary: 50uM; for P. berghei Liver stage infection rate rep1 (luciferase) / P. berghei Liver stage infection rate rep2 (luciferase): 50µM.

A further data set deals with P. falciparum Dd2. In words: Malaria Sybr Green I Fluorescence assay Dd2 Horrocks. It is filed as cell-based. The following applies: Plasmodium falciparum, DD2, 48 h; read-out: P. falciparum Dd2 asexual blood stage EC50 Horrocks. In short, it runs like this:
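Dd2 asexual parasites started at 2% trophozoite-stage parasitaemia and 2% hematocrit; growth read by SYBR Green I fluorescence after 48 h. IC50 values taken from log dose-response curves.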

Data set [2] has as its system Trypanosoma brucei rhodesiense STIB 900. The following applies: ref [84]; cited from earlier work.
The subject of data set [3] is Saccharomyces cerevisiae strain JHY222. In words: S. cerevisiae JHY222 growth in three media. The following applies: 100µM. It is filed as cell-based. The protocol: Columns EB-ED: St. Onge group (data presented first in this paper). Growth inhibition of S. cerevisiae: The effects of Malaria Box compounds on the growth of yeast (Saccharomyces cerevisiae) were quantified as described previously. We employed the prototrophic yeast strain JHY222, a derivative of BY4743 in which auxotrophic markers have been repaired. Growth was measured in three different growth media: rich medium using dextrose as a carbon source, minimal medium using dextrose as a carbon source, or minimal medium using ethanol and glycerol as carbon sources. Compounds affecting growth in a media-specific manner may represent inhibitors of key metabolic pathways. For example, the antifolate drug methotrexate was previously shown to inhibit yeast growth far more potently in minimal medium compared to rich medium.

The test system of data set [4] is P. berghei liver stages in HepG2. In words: P. berghei liver stage luciferase Hanson. It is filed as cell-based. The following applies: Plasmodium berghei, read-out: P. berghei Liver Stage % of control infection (Luciferase). How it is done: Columns AS-AT: Hanson group (data presented first in this paper). P. berghei liver stage growth. Phenotypic analysis of Malaria Box compound activity against P. berghei liver stages and assay development will be reported elsewhere (Medina Vera, Itoe, et al; in preparation). Methods: Screening was carried out in 96 well plates, with 10,000 HepG2 cells (ATCC) seeded one day prior to infection with 10,000 P. berghei-Luciferase (676m1cl1) sporozoites per well in the presence of 1:300 Fungizone (Life Technologies). Medium was replaced 2 hours post-infection (hpi) and the Malaria Box compounds were added at a final concentration of 5 µM at this time. At 48 hpi, parasite load, by way of luminescence, was quantified after a 10 minute incubation with 50 µl of 150 µg/ml D-Luciferin on a Tecan Infinite M200 plate reader. Plates included 8 wells of DMSO (compound vehicle and positive control for infection), along with 8 non-infected wells serving as negative controls. Luminescence values for individual wells were normalized to the mean of the in-plate DMSO controls, which was set at 100. […] The normalized mean of non-infected control wells was 2.5, with a standard deviation of 2. Data presented are the average of 3 independent experiments, each conducted in technical triplicate. Toxicity of the compounds was determined at 66 hpi based on HepG2 cell abundance in 9 non-overlapping images per well, generated with a Molecular Devices IXM using a 40x objective. Briefly, EEFs were identified based on 2E6 immunolabeling and used to mask widefield images of Hoechst 33452-labeled nuclei, and the percentage of each 2,160 x 2,160 pixel image occupied by Hoechst^+ pixels, representing HepG2 nuclei only, was then determined for all images in CellProfiler. Data is from one representative experiment. The mean area occupied by HepG2 nuclei in the 8 DMSO controls wells was set to 1, and used to normalize those treated with compounds.

Data set [5] deals with Saccharomyces cerevisiae ABC16-Monster. In words: S. cerevisiae ABC16-Monster growth inhibition. It is filed as cell-based. The following applies: ABC16MONSTER, read-out: S. cerevisiae strain ABC16-Monster in YPD % inhibition. How it is done: Column EA: Suzuki group (data presented first in this paper). Screening of MMV compounds for Saccharomyces cerevisiae ABC16-Monster growth inhibition. Methods: Compounds were added at 100 micromolar to YPD medium (1% yeast extract, 2% peptone, and 2% glucose). Only the solvent dimethyl sulfoxide (DMSO) without any MMV compound was added at 1% to the negative control. The initial density of ABC16-Monster cells corresponded to optical density at 600 nanometers (OD600) of 0.01. Cells were cultured without agitation in a 96-well plate at 30 degrees Celsius for 18 hours and then resuspended for measurement of OD600. For each compound, two cultures were conducted and examined. The average OD600 value was used. To calculate percent inhibition, OD600 for cells cultured with a compound was divided by OD600 for the negative control. The ABC16-Monster yeast strain was previously described.

The subject of data set [6] is Onchocerca lienalis microfilariae. The data set can be described thus: Onchocerca lienalis microfilariae motility. It counts as cell-based. The following applies: 12.5µM. The protocol:
Column DW: Townson group (data presented first in this paper). Screening of Onchocerca lienalis microfilariae for motility inhibition in microplates. Methods: Microfilariae are obtained from samples of peri-umbilical skin of freshly slaughtered, naturally infected cattle in the UK. […] The results are then calculated as motility index scores and expressed as a percentage of the maximum obtainable. […] Merial) were immotile at the end of the trial.

For data set [7], the system named is MRC5SV2 human fibroblasts. The following applies: read-out: MRC-5-Human-Fibroblasts EC50 (32000 >32µM); ref [84]; cited from earlier work.

The EC50 is the concentration needed to bring the measured effect to its halfway point. In general, inhibition refers to the relative decrease from the control value, in per cent.

As for `CCN(CC)c1cc(C)c2cc(NC(=O)c3cccc(OC)c3)ccc2n1` [MMV000498], in data set [1], the “P. berghei Liver stage activity summary” value was “tox (tox (toxic) if >50% HepG2)”, the “P. berghei Liver stage infection rate rep1 (luciferase)” value is given as -3.74% and the “P. berghei Liver stage infection rate rep2 (luciferase)” value is -5.7%. Moreover, in the data set on P. falciparum Dd2, the 50% effective concentration (EC50) amounted to 2.77 µM. In data set [2], the EC50 was 0.679 µM. Further, in data set [3], the “S. cerevisiae jhy222 in YNBD medium growth compared with DMSO control” value is -0.05, the “S. cerevisiae jhy222 in YNBEG medium growth compared with DMSO control” value stood at 0.14 and the “S. cerevisiae jhy222 in YPD medium growth compared with DMSO control” value is listed as -0.0562. Further, the activity at 5 µM in data set [4] came out at 63%. Besides, the inhibition at 100 µM in data set [5] is -6%. Further, the “Onchocerca lienalis % motility” value in data set [6] was 100%. Besides, the concentration for a half-maximal effect (EC50) in data set [7] is 15.3 µM.
Take `COc1cc2cc(C(=O)Nc3ccccc3)c(N)nc2cc1OC` [MMV006767]: in data set [1], the “P. berghei Liver stage infection rate rep1 (luciferase)” value is given as 27% and the “P. berghei Liver stage infection rate rep2 (luciferase)” value was 61%. Also, in the data set with P. falciparum Dd2, the concentration for a half-maximal effect (EC50) amounted to 0.884 µM. Also, in data set [3], the “S. cerevisiae jhy222 in YNBD medium growth compared with DMSO control” value is recorded as -0.11, the “S. cerevisiae jhy222 in YNBEG medium growth compared with DMSO control” value is on record as -0.49 and the “S. cerevisiae jhy222 in YPD medium growth compared with DMSO control” value is recorded as -0.0536. Besides, the activity at 5 µM in data set [4] worked out at 53%. Moreover, in data set [5], the inhibition at 100 µM is 24%. Besides, the “Onchocerca lienalis % motility” value in data set [6] is recorded as 100%. Moreover, the EC50 in data set [7] is greater than 32 µM.
`CCN1CCN(c2cc(C)c3cc(NC(=O)c4ccc(OC)c(OC)c4)ccc3n2)CC1` [MMV019074]: in data set [1], the “P. berghei Liver stage activity summary” value is recorded as “tox (tox (toxic) if >50% HepG2)”, the “P. berghei Liver stage infection rate rep1 (luciferase)” value was -3.74% and the “P. berghei Liver stage infection rate rep2 (luciferase)” value is listed as -4%. For the same compound, the concentration for a half-maximal effect (EC50) in the data set on P. falciparum Dd2 is 1.85 µM. Also, the concentration for a half-maximal effect (EC50) in data set [2] is 3.22 µM. In addition, in data set [3], the “S. cerevisiae jhy222 in YNBD medium growth compared with DMSO control” value came out at 0.0025, the “S. cerevisiae jhy222 in YNBEG medium growth compared with DMSO control” value was -0.0049 and the “S. cerevisiae jhy222 in YPD medium growth compared with DMSO control” value is reported as -0.0537. Moreover, in data set [4], the activity at 5 µM was 105%. Besides, the inhibition at 100 µM in data set [5] stood at 3.48%. Moreover, the “Onchocerca lienalis % motility” value in data set [6] came to 100%. The concentration giving a half-maximal response (EC50) in data set [7] was 5.46 µM.
With `COc1ccc(C(=O)Nc2ccc3nc(N4CCCCC4)cc(C)c3c2)cc1OC` [MMV019758], in data set [1], the “P. berghei Liver stage activity summary” value is “tox (tox (toxic) if >50% HepG2)”, the “P. berghei Liver stage infection rate rep1 (luciferase)” value is on record as -4% and the “P. berghei Liver stage infection rate rep2 (luciferase)” value is -4%. Also, the concentration for a half-maximal effect (EC50) in the data set with P. falciparum Dd2 turned out to be 0.614 µM. In data set [2], the EC50 is 10.9 µM. Besides, in data set [3], the “S. cerevisiae jhy222 in YNBD medium growth compared with DMSO control” value is recorded as 0.0051, the “S. cerevisiae jhy222 in YNBEG medium growth compared with DMSO control” value was found to be 0.20 and the “S. cerevisiae jhy222 in YPD medium growth compared with DMSO control” value came to 0.0044. The activity at 5 µM in data set [4] stood at 74%. Further, the inhibition at 100 µM in data set [5] was -8%. Moreover, the “Onchocerca lienalis % motility” value in data set [6] was 100%. Also, in data set [7], the 50% effective concentration (EC50) was 16.4 µM.
Regarding `CCOC(=O)c1cnc2ccc(OC)cc2c1NCc1ccccc1` [MMV665813], in data set [1], the “P. berghei Liver stage activity summary” value is “tox (tox (toxic) if >50% HepG2)”, the “P. berghei Liver stage infection rate rep1 (luciferase)” value is listed as -3.22% and the “P. berghei Liver stage infection rate rep2 (luciferase)” value was -4%. The EC50 with P. falciparum Dd2 stood at 4.89 µM. Also, the EC50 in data set [2] is 4.95 µM. Further, in data set [3], the “S. cerevisiae jhy222 in YNBD medium growth compared with DMSO control” value is given as -0.13, the “S. cerevisiae jhy222 in YNBEG medium growth compared with DMSO control” value is on record as -0.06 and the “S. cerevisiae jhy222 in YPD medium growth compared with DMSO control” value was 0.0021. The activity at 5 µM in data set [4] came out at 66%. Also, the inhibition at 100 µM in data set [5] was -1.7%. In data set [6], the “Onchocerca lienalis % motility” value was 100%. Moreover, the EC50 in data set [7] was greater than 32 µM.

The record behind these values is paper PMC4965013, “Open Source Drug Discovery with the Malaria Box Compound Collection for Neglected Diseases and Beyond” (PLoS Pathogens, 2016).
